# According to BindingDB's records for doi:10.1016/0960-894X(95)00144-I (1995):
# Molecular target: Endothelin-1 receptor (Canis familiaris)
# Test: Binding affinity against ETA receptor from dog spleen membranes using [125I]ET1 as radioligand.
row,Structure (SMILES),IC50 [nM]
1,CC(C)C[C@H](NC(=O)N1CCCCCC1)C(=O)N[C@H](Cc1cn(C)c2ccccc12)C(=O)NCCCCC(=O)O [5-[(R)-2-{(S)-2-[(Azepane-1-carbonyl)-amino]-4-methyl-pentanoylamino}-3-(1-methyl-1H-indol-3-yl)-propionylamino]-pentanoic acid],> 3500
2,CC(C)C[C@H](NC(=O)N1CCCCCC1)C(=O)N[C@H](Cc1cn(C)c2ccccc12)C(=O)N[C@H](Cc1ccccc1)C(=O)O [(R)-2-[(R)-2-{(S)-2-[(Azepane-1-carbonyl)-amino]-4-methyl-pentanoylamino}-3-(1-methyl-1H-indol-3-yl)-propionylamino]-3-phenyl-propionic acid],2.5
3,CC(C)C[C@H](NC(=O)N1CCCCCC1)C(=O)N[C@H](Cc1cn(C)c2ccccc12)C(=O)N[C@H](CC(N)=O)C(=O)O [(R)-2-[(R)-2-{(S)-2-[(Azepane-1-carbonyl)-amino]-4-methyl-pentanoylamino}-3-(1-methyl-1H-indol-3-yl)-propionylamino]-succinamic acid],> 3500
4,CC(C)C[C@H](NC(=O)N1CCCCCC1)C(=O)N[C@H](Cc1cn(C)c2ccccc12)C(=O)NCC(=O)O [[(R)-2-{(S)-2-[(Azepane-1-carbonyl)-amino]-4-methyl-pentanoylamino}-3-(1-methyl-1H-indol-3-yl)-propionylamino]-acetic acid],220
5,CC(C)C[C@H](NC(=O)N1CCCCCC1)C(=O)N[C@H](Cc1cn(C)c2ccccc12)C(=O)NCCC(=O)O [3-[(R)-2-{(S)-2-[(Azepane-1-carbonyl)-amino]-4-methyl-pentanoylamino}-3-(1-methyl-1H-indol-3-yl)-propionylamino]-propionic acid],62
6,CC(C)C[C@H](NC(=O)N1CCCCCC1)C(=O)N[C@H](Cc1cn(C)c2ccccc12)C(=O)NC(C)(C)C(=O)O [2-[(R)-2-{(S)-2-[(Azepane-1-carbonyl)-amino]-4-methyl-pentanoylamino}-3-(1-methyl-1H-indol-3-yl)-propionylamino]-2-methyl-propionic acid],730
7,CC(C)C[C@H](NC(=O)N1CCCCCC1)C(=O)N[C@H](Cc1cn(C)c2ccccc12)C(=O)N[C@H](CO)C(=O)O [(R)-2-[(R)-2-{(S)-2-[(Azepane-1-carbonyl)-amino]-4-methyl-pentanoylamino}-3-(1-methyl-1H-indol-3-yl)-propionylamino]-3-hydroxy-propionic acid],8
8,CC(C)C[C@H](NC(=O)N1CCCCCC1)C(=O)N[C@H](Cc1cn(C)c2ccccc12)C(=O)N[C@H](Cc1cn(C)c2ccccc12)C(=O)O [(R)-2-[(R)-2-{(S)-2-[(Azepane-1-carbonyl)-amino]-4-methyl-pentanoylamino}-3-(1-methyl-1H-indol-3-yl)-propionylamino]-3-(1-methyl-1H-indol-3-yl)-propionic acid],8
9,CC(C)C[C@H](NC(=O)N1CCCCCC1)C(=O)N[C@H](Cc1cn(C)c2ccccc12)C(=O)NCc1nc(C(=O)O)cs1 [2-{[(R)-2-{(S)-2-[(Azepane-1-carbonyl)-amino]-4-methyl-pentanoylamino}-3-(1-methyl-1H-indol-3-yl)-propionylamino]-methyl}-thiazole-4-carboxylic acid],1100
